In publication PMC8048860 (Chemmedchem, 2020):

Tests used:
[1] = system: T. cruzi (Tulahuen strain, DTU VI) expressing beta-galactosidase; assay: T. cruzi growth inhibition assay; format: cell-based, Trypanosoma cruzi; settings: read-out: T. cruzi EC50; averages of triplicate data; 3T3 host cells, 6 days
[2] = system: human lymphocytic cells (CRL-8155); assay: Mammalian cell growth inhibition assay, CRL-8155; format: cell-based; settings: for EC50: CRL8155, 48 h, read-out: CLR‐8155 EC50
[3] = system: human hepatocellular cells (HepG2); assay: Mammalian cell growth inhibition assay, HepG2; format: cell-based; settings: for EC50: HepG2, 48 h, read-out: Hep G2 EC50

## Cc1ccc2nc(-c3ccc(F)c(F)c3)c(CN3CCN(C4CCCCC4)CC3)n2c1 [Compound 37]
[1]
  EC50: 2.6 µM

## Cc1ccc2nc(-c3ccc(F)c(F)c3)c(CN3CCC(Cc4ccccc4)CC3)n2c1 [Compound 39]
[2]
  EC50: > 50 µM
[1]
  EC50: 1.6 µM
[3]
  EC50: > 50 µM

## CCN(CC)CCCC(C)Nc1c2ccc(Cl)cc2nc2ccc(OC)cc12 (centres unmarked) [Quinacrine]
[2]
  EC50: 5.47 µM
[2]; CRL8155, read-out: CRL‐8155 EC90 (control compound)
  EC90: 15.7 µM
[3]
  EC50: 14.3 µM
[3]; HepG2, read-out: Hep G2 EC90 (control compound)
  EC90: 18.7 µM
